Assay results taken from PubChem BioAssay (NCI).
“And” between values parts separate entries of the source, which are not always exact repeats. Equal entries are not always repeated.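 How tested: cells in 96-well plates exposed to compound for 48 hours at five concentrations. GI50 marks 50% less growth. TGI is the concentration that stops growth completely.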

Experiments:
Experiment in all cases: NCI tumour cell line growth inhibition, 48 h
RXF 393 renal = system: RXF 393 renal
M14 melanoma = system: M14 melanoma
HOP-62 NSCLC = system: HOP-62 NSCLC
T-47D breast = system: T-47D breast
MCF7 breast = system: MCF7 breast
IGROV1 ovarian = system: IGROV1 ovarian
K-562 leukemia = system: K-562 leukemia
UACC-62 melanoma = system: UACC-62 melanoma
U251 CNS = system: U251 CNS
SK-MEL-5 melanoma = system: SK-MEL-5 melanoma

SMILES	GI50 (RXF 393 renal)	TGI (RXF 393 renal)	GI50 (M14 melanoma)	TGI (M14 melanoma)	GI50 (HOP-62 NSCLC)	TGI (HOP-62 NSCLC)	GI50 (T-47D breast)	TGI (T-47D breast)	GI50 (MCF7 breast)	TGI (MCF7 breast)	GI50 (IGROV1 ovarian)	TGI (IGROV1 ovarian)	GI50 (K-562 leukemia)	TGI (K-562 leukemia)	GI50 (UACC-62 melanoma)	TGI (UACC-62 melanoma)	GI50 (U251 CNS)	TGI (U251 CNS)	GI50 (SK-MEL-5 melanoma)	TGI (SK-MEL-5 melanoma)
O=C(Nc1cccc([N+](=O)[O-])c1)c1ccc2ccccc2c1O	3.37 µM	> 35.4 µM	6.81 µM	> 100 µM	10.8 µM	> 100 µM	2.64 µM	> 30.4 µM	2.88 µM	> 43.2 µM	13.8 µM	46 µM	2.79 µM	> 100 µM	4.22 µM	> 100 µM	4.36 µM	> 86.8 µM	1.75 µM	6.41 µM
CCCCCCCCCCCCCCCCOC(=O)c1c(C)[nH]c(/C=C2\N=C(c3ccc[nH]3)C=C2OC)c1C	1.41 µM	6.46 µM	0.152 µM	0.452 µM	2.89 µM	12.8 µM	0.433 µM	12.8 µM	0.0686 µM	> 100 µM	1.06 µM	9.4 µM	0.413 µM	> 100 µM	0.235 µM	0.62 µM	0.638 µM	7.04 µM	0.119 µM	0.703 µM
C/C1=C\CC[C@@]2(C)O[C@@H]2C[C@@H]2[C@H](C/C(C)=C/CC1)OC(=O)C21CCN=N1 (some centres undefined)	> 100 µM	> 100 µM	> 100 µM	> 100 µM	> 100 µM	75 µM and > 100 µM	–	> 100 µM	> 100 µM	> 100 µM	> 100 µM	> 100 µM	71.2 µM	42.7 µM and > 100 µM	> 100 µM	> 100 µM	> 100 µM	> 100 µM	> 100 µM	75 µM and > 100 µM
Oc1ccc2ccccc2c1C(c1ccc(Cl)cc1)c1c(O)ccc2ccccc12	–	8.28 µM	–	15.2 µM	–	16 µM	–	12.3 µM	–	11.5 µM	–	7.65 µM	–	10.6 µM	–	15.1 µM	–	12.9 µM	–	6.93 µM
COc1ccc(Cn2cc3c(c2-c2ccc(O)cc2)CCc2cnoc2-3)cc1	0.309 µM	3.67 µM	0.325 µM	16.5 µM	0.49 µM	18.4 µM	0.377 µM	23.7 µM	0.333 µM	15.5 µM	0.578 µM	23.6 µM	0.13 µM	16.6 µM	0.54 µM	17.6 µM	0.447 µM	15.1 µM	0.315 µM	12.6 µM
C=C(C)[C@@H]1CC[C@]2(C(=O)O)CC[C@]3(C)[C@H](CC[C@@H]4[C@@]5(C)C[C@@H](CC#Cc6ccc(Br)cc6)C(=O)C(C)(C)[C@@H]5CC[C@]43C)[C@@H]12	5.5 µM	21.8 µM	2.67 µM	12.2 µM	12.4 µM	38.4 µM	9.02 µM	> 100 µM	4.94 µM	> 100 µM	4.07 µM	24.9 µM	15.6 µM	> 100 µM	2.69 µM	8.34 µM	2.12 µM	6.72 µM	34.2 µM	> 100 µM
CC(C)=CC(O)C/C(C)=C/CC/C(C)=C/CCC1(C)C(CCCO)/C(=C(/C)C=O)CCC1(C)O (centres undefined)	–	90.6 µM	–	60.9 µM	–	88.6 µM	–	> 100 µM	–	79.2 µM	–	61.7 µM	–	7.94 µM	–	> 100 µM	–	> 100 µM	–	> 100 µM
N#Cc1c(NC(=O)c2cccc3ccccc23)sc2c1CCCC2	0.0331 µM	0.121 µM	0.0249 µM	0.116 µM	0.0825 µM	> 25 µM	0.101 µM	> 20.1 µM	0.09 µM	> 25 µM	0.177 µM	> 25 µM	0.0115 µM	> 25 µM	0.018 µM	> 25 µM	0.0622 µM	> 25 µM	0.0844 µM	1.62 µM
O=C(Nc1cccnc1)c1cccc([N+](=O)[O-])c1	> 100 µM	> 100 µM	> 100 µM	> 100 µM	> 100 µM	> 100 µM	> 100 µM	> 100 µM	> 100 µM	> 100 µM	> 100 µM	> 100 µM	> 100 µM	> 100 µM	> 100 µM	> 100 µM	> 100 µM	> 100 µM	> 100 µM	> 100 µM
COc1cc2c3c(n(CCCCNC(=O)OCC4c5ccccc5-c5ccccc54)c(=O)c2cc1OC)-c1cc2c(cc1C3=O)OCO2	15.9 µM	58.6 µM	25.9 µM	> 100 µM	5.62 µM	34 µM	95.8 µM	> 100 µM	0.554 µM	16.2 µM	17.9 µM	> 100 µM	3.05 µM	27.4 µM	45.7 µM	> 100 µM	11.2 µM	65.3 µM	23.4 µM	> 100 µM
COc1ccc2c(c1)C(=O)/C(=C/c1ccc([N+](=O)[O-])s1)O2	0.284 µM	0.926 µM	0.358 µM	1.31 µM	1.07 µM	3.47 µM	0.248 µM	0.728 µM	0.344 µM	> 100 µM	0.349 µM	1.2 µM	0.291 µM	12.2 µM	0.311 µM	1.16 µM	0.287 µM	0.943 µM	0.326 µM	1.04 µM
Cc1ccc(/C=C/C(=O)c2ccc(N)cc2)c(C)c1	5.56 µM	17.9 µM	2.45 µM	7.52 µM	17 µM	38 µM	2.05 µM	4.64 µM	8.29 µM	37.2 µM	1.41 µM	3.08 µM	2.03 µM	4.84 µM	2.52 µM	7.16 µM	6.5 µM	19.3 µM	9.47 µM	21.6 µM
